The source of these data is PubChem BioAssay (NCI).

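A five-concentration, 48-hour dose response in 96-well plates underlies each endpoint, interpolated linearly between surrounding concentrations. GI50 is the concentration that inhibits growth by half. TGI: total growth inhibition.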 Bounds are passed on as bounds.

Holding throughout (experiment): NCI-60 cell line screen, 48 h
The test system of experiment [1] is DU-145 prostate.
For experiment [2], the system named is MDA-MB-435.
Experiment [3] has as its system BT-549 breast.
In experiment [4] the test system is CAKI-1 renal.
The subject of experiment [5] is COLO 205 colon.
The test system of experiment [6] is OVCAR-3 ovarian.
Experiment [7] concerns HCT-15 colon.
The subject of experiment [8] is CCRF-CEM leukemia.
The subject of experiment [9] is SW-620 colon.
The subject of experiment [10] is SK-OV-3 ovarian.

For the compound `N#Cc1c(N)n(C2OC(CO)C(O)C2O)c2ncnc(N)c12` (centres undefined), the TGI in [1] is more than 17400 nM; in [2], 89.1 nM; in experiment [3], 2130 nM; in [4] it was 263 nM; in experiment [5], 191 nM; in experiment [6] it was 156 nM. In addition, the TGI is 164 nM in experiment [7] and 1340 nM in experiment [8].

In the case of `COc1cc(-c2nn(-c3ccc(NC(=O)Nc4ccc(Cl)c(C(F)(F)F)c4)cc3)cc2-c2ccncc2)ccc1Cl`, the GI50 was 2470 nM in experiment [1]; 1600 nM in experiment [2]; 2010 nM in [3]; 1290 nM in experiment [4]; 1820 nM in [9]; 1670 nM in experiment [5]. Moreover, the GI50 is 2530 nM in experiment [10], 1570 nM in experiment [6], 1440 nM in experiment [7] and 1420 nM in experiment [8]. Also, the TGI was 7520 nM in [1]; 3540 nM in [2]; 4570 nM in [3]; 3540 nM in [4]; 3580 nM in [9]; 3290 nM in experiment [5]. The TGI in experiment [10] was 6430 nM; in [6], 3590 nM; in [7], 3220 nM; in experiment [8] it was 7010 nM.

On to `COc1ccc2c(c1)O/C(=C\c1ccc([N+](=O)[O-])o1)C2=O`, for which the GI50 is 775 nM in [1]; 1610 nM in experiment [2]; 1560 nM in experiment [3]; 452 nM in experiment [4]; 294 nM in experiment [9]; 1180 nM in experiment [5]. In addition, the GI50 was 4750 nM in [10], 1190 nM in [6], 271 nM in experiment [7] and 340 nM in experiment [8]. In addition, the TGI in experiment [1] is 7940 nM; in [2], 3490 nM; in experiment [3] it was 3070 nM; in [4], 2120 nM; in [9], 1390 nM; in experiment [5] it was 3120 nM. The TGI came out at 59000 nM in [10], 2530 nM in experiment [6], 1260 nM in experiment [7] and 1700 nM in [8].

Turning to `OCCNC(=S)Nc1ccc(-c2nc(N3C[C@H]4CC[C@@H](C3)O4)c3cccn3n2)cc1`, the GI50 in [1] was 98.7 nM; in experiment [2], 59.7 nM; in experiment [3], 21 nM; in experiment [4], 132 nM; in [9], 203 nM; in experiment [5], 36.5 nM. In addition, the GI50 is 16.2 nM in [10], 66.4 nM in [6], 90.6 nM in experiment [7] and 153 nM in [8]. For the same compound, the TGI was 24200 nM in experiment [1]; 2860 nM in experiment [2]; 507 nM in experiment [3]; more than 37800 nM in [4]; 13800 nM in experiment [9]; 1690 nM in [5]. For the same compound, the TGI was 104 nM in experiment [10], 4390 nM in experiment [6], 14400 nM in experiment [7] and more than 40600 nM in experiment [8].

Take `COc1ccc(Nc2[nH]n(C3=Nc4ccccc4Sc4ccccc43)c(=O)c2C#N)cc1`: the GI50 was 2830 nM in [1]; 1130 nM in experiment [2]; 494 nM in experiment [3]; 255 nM in [4]; 3180 nM in experiment [9]; 1510 nM in experiment [5]. Also, the GI50 in experiment [10] was 5900 nM; in experiment [6], 1780 nM; in experiment [7], 1870 nM; in experiment [8], 1190 nM. For the same compound, the TGI was 61500 nM in experiment [1]; 3990 nM in [2]; 3400 nM in experiment [3]; 1570 nM in experiment [4]; more than 100000 nM in experiment [9]; 3350 nM in [5]. In addition, the TGI in experiment [10] was 54100 nM; in experiment [6], 8640 nM; in [7], 34100 nM; in experiment [8] it was more than 100000 nM.

`Cc1ccccc1NC(=O)N/C(N)=N/c1nc(C)c(C)s1`: the GI50 in [1] is 481 nM; in experiment [2] it was 33.2 nM; in [3] it was 1140 nM; in experiment [4], 197 nM; in [9], 163 nM; in [5], 295 nM. Also, the GI50 is 596 nM in [10], 170 nM in experiment [6], 64.7 nM in experiment [7] and 243 nM in [8]. Also, the TGI in [1] was more than 100000 nM; in experiment [2], 468 nM; in experiment [3], more than 100000 nM; in [4], 97100 nM; in experiment [9], more than 100000 nM; in experiment [10] it was more than 100000 nM. Moreover, the figures for the TGI in experiment [6], in experiment [7] and in [8] were 13500 nM, more than 100000 nM and more than 100000 nM, respectively.

Consider `C[C@@]1([C@H](OC(=O)c2cccc3ccccc23)C(N)=O)CO1`, for which the GI50 in experiment [1] was 1610 nM; in experiment [3], 6150 nM; in experiment [4], 5560 nM; in experiment [9], 1100 nM; in experiment [5], 2990 nM; in [10] it was 6350 nM. The values for the GI50 in experiment [6], in [7] and in experiment [8] were 21600 nM, 1720 nM and 1100 nM, respectively. The TGI in [1] was 5640 nM; in [2] it was 1740 nM; in experiment [3] it was 21800 nM; in experiment [4], more than 100000 nM; in [5], 14400 nM; in [10], 19700 nM. Moreover, the figures for the TGI in [6], in experiment [7] and in experiment [8] were more than 100000 nM, 10700 nM and more than 100000 nM, respectively.

On to `CCCCCCCC(=O)SCC/C=C/[C@@H]1CC(=O)NCc2cccc(n2)C2=N[C@@](C)(CS2)C(=O)N[C@@H](C(C)C)C(=O)O1`, for which the GI50 in experiment [1] is 28.7 nM; in experiment [2], 29.2 nM; in experiment [3], 190 nM; in experiment [4], 174 nM; in [9] it was 92.1 nM; in experiment [5], 85.7 nM. Further, the GI50 in experiment [10] is 28.4 nM; in experiment [6], 87.7 nM; in experiment [7] it was 249 nM; in experiment [8] it was 112 nM. Moreover, the TGI in [1] was more than 33300 nM; in [2], more than 12500 nM; in experiment [3], more than 33300 nM; in experiment [9], 3720 nM; in [5], 337 nM; in [10] it was 596 nM. Besides, the results for the TGI in experiment [6], in experiment [7] and in experiment [8] were 1070 nM, more than 33300 nM and more than 33300 nM, respectively.
